Results on 14 molecules are retold here after US6410792B1, “Amide derivatives and methods for using the same as selective neuropeptide Y receptor antagonists” (Bayer Corporation, priority 1997, dated 2002).

Bounds are passed on as bounds.

In series [1] the target is T1, Y2 receptor (Homo sapiens, UniProt P49146).
T1 sequence (P49146 1-381): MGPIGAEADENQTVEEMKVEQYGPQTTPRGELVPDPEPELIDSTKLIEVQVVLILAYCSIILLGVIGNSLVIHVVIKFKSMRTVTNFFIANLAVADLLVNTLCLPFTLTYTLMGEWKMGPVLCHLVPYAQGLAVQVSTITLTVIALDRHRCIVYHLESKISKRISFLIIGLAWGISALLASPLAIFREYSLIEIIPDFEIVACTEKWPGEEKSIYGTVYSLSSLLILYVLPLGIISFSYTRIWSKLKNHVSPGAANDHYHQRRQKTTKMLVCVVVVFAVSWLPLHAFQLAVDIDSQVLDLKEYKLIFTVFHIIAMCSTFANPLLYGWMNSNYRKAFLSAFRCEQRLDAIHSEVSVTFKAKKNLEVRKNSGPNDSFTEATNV
Nature of the series: Y2 receptor binding assay ([125I]PYY, membrane protein). The note with it: [125I]PYY, membrane protein; read-out: hNPY2 IC50. The essentials:
(§1)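 Filtration binding with membrane protein and drug dilution, 2 h at room temperature with mixing, radioactivity counted by gamma or scintillation. Y2: 25 pM [125I]PYY in Krebs-Ringer bicarbonate pH 7.4 with 0.01% BSA, nonspecific by 1 μM NPY. Y4/PP1: 50 pM [125I]hPP in HEPES-buffered saline pH 7.4 with protease inhibitors and 0.3% BSA, nonspecific by 1 μM hPP.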

The target in series [2] is T2, Human NPY5 receptor (Homo sapiens, UniProt Q15761).
T2 sequence (Q15761 1-445): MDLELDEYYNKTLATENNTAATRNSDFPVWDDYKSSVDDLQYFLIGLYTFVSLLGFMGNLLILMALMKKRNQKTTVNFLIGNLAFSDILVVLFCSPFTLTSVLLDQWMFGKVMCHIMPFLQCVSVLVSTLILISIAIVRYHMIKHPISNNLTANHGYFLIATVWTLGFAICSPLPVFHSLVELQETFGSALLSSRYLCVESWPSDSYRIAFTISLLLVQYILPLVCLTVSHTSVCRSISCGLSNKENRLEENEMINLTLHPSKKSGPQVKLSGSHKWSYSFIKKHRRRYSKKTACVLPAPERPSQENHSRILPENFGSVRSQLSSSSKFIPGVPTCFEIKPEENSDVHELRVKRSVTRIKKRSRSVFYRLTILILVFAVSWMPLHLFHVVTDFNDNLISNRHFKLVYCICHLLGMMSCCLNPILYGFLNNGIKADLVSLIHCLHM
Nature of the series: Human NPY5 receptor binding assay ([125I]PYY, membrane protein). The note with it: [125I]PYY, read-out: hNPY5 IC50. The essentials: (§2)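 Compounds compete with porcine [125I]PYY (75-100 pM) for receptor sites on membrane protein over a 2 hour room-temperature incubation at pH 7.4. Unlabelled PYY at 1 μM defines nonspecific binding, and filter-retained radioactivity gives the read-out.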

The target of series [3] is T3, Human NPY1 receptor (Homo sapiens, UniProt P25929).
T3 construct: host or cells: SK-N-MC cells
T3 sequence (P25929 1-384): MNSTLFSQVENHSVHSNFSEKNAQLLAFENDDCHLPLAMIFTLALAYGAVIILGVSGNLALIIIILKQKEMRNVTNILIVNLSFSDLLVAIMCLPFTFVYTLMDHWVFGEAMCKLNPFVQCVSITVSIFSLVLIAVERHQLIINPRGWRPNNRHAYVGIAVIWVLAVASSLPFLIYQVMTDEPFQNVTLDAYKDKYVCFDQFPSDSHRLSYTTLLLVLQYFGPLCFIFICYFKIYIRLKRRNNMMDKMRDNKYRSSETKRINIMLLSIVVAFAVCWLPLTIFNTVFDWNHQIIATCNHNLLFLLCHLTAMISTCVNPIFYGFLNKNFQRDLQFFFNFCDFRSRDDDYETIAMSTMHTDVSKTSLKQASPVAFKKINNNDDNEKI
Description: Human NPY1 receptor binding assay ([125I]PYY, SK-N-MC cells). The note with it: [125I]PYY, SK-N-MC cells; read-out: hNPYI IC50. The essentials:
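Whole-cell competition with ~50 pM [125I]PYY on SK-N-MC monolayers, 3 h at room temperature after 30 min preincubation in HEPES-buffered (pH 7.3) serum-free DMEM containing protease inhibitors. Gamma counting of cell lysates; 1 μM NPY gave nonspecific binding.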

Series [4] concerns the target human Y4/PP1 receptor (Homo sapiens, UniProt P50391). Nature of the series: Human Y4/PP1 receptor binding assay ([125I]human PP, membrane protein). The note with it: [125I]human PP, membrane protein; read-out: hNPY4 IC50. The essentials: as §1
Series [5] concerns the target T4, Rat NPY5 receptor (Rattus norvegicus, UniProt Q63634).
T4 sequence (Q63634 1-445): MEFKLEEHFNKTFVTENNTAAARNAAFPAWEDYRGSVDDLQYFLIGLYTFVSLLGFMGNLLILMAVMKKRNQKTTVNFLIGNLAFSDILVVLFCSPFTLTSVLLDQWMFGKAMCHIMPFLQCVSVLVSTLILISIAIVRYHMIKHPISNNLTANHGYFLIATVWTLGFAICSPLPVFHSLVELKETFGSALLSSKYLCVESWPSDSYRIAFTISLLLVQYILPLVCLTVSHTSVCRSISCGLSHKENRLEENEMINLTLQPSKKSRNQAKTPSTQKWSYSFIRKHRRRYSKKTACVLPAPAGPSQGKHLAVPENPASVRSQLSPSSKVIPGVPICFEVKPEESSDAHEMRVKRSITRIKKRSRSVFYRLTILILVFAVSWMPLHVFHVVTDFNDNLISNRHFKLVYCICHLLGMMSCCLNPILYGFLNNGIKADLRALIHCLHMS
Description: Rat NPY5 receptor binding assay ([125I]PYY, membrane protein). The note with it: [125I]PYY, read-out: rNPY5 IC50. The essentials: as §2

Chain of human Y4/PP1 receptor (P50391 whole entry): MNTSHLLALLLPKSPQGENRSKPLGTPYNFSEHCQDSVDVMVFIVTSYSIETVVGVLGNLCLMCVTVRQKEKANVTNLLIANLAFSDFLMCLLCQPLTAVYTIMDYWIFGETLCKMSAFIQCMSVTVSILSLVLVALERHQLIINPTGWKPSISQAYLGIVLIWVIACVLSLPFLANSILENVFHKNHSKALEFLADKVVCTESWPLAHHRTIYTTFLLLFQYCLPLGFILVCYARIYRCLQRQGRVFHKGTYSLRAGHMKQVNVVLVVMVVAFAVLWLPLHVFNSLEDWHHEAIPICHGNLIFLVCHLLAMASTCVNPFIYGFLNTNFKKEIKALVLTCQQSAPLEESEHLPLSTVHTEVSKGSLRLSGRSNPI

As for `O=C(CN1CCCCC1)Nc1ccc(C2CCCCC2)cc1` [Compound 252, N-(4-Cyclohexyl-phenyl)-2-(piperidine)-acetamide], the melting point (usually the temperature of the solid-liquid transition) lay in the range of 118 to 119 °C. The IC50 (commonly the point on the concentration scale where inhibition reaches its midpoint) in series [1] was over 5 µM. Also, the IC50 in series [2] is 0.94 µM. The IC50 in series [3] is over 5 µM. Besides, the IC50 in series [4] was over 5 µM. In addition, in series [5], the IC50 was 0.63 µM.

As to `O=C(CN1CCC(n2c(=O)[nH]c3ccccc32)CC1)Nc1ccc(Cc2ccccc2)cc1` [Compound 258, N-(4-Benzyl-phenyl)-2-[4-(2-oxo-2,3-dihydro-benzoimidazol-1-yl)-piperidin-1-yl]-acetamide], the melting point lay in the range of 182 to 183 °C. In addition, the IC50 in series [1] is over 5 µM. For the same molecule, the IC50 in series [2] turned out to be 0.1 µM. The IC50 in series [3] is over 5 µM. The IC50 in series [4] was over 5 µM.

The molecule `CC(C)OC(=O)c1ccc(NC(=O)CN2CCC(n3c(=O)[nH]c4ccccc43)CC2)cc1` [Compound 260] returned a melting point of 168 to 177 °C. The IC50 in series [1] is over 5 µM. In addition, the IC50 in series [2] was 0.014 µM. In addition, the IC50 in series [3] was over 5 µM. For the same molecule, the IC50 in series [4] is over 5 µM.

Take `CCOC(=O)Cc1ccc(NC(=O)CN2CCC(n3c(=O)[nH]c4ccccc43)CC2)cc1` [Compound 261, (4-{2 [4-(2-Oxo-2,3-dihydro-benzoimidazol-1-yl)-piperidin-1-yl]-acetylamino}-phenyl)-acetic acid ethyl ester]: the melting point lay in the range of 164 to 165 °C. Moreover, the IC50 in series [1] is over 5 µM. The IC50 in series [2] was 0.59 µM. Besides, in series [3], the IC50 was over 5 µM. For the same molecule, the IC50 in series [4] was over 5 µM.

For `O=C(CN1CCC(n2c(=O)[nH]c3ccccc32)CC1)Nc1ccc(C=Cc2ccccc2)cc1` [Compound 262, 2-[4-(2-Oxo-2,3-dihydro-benzoimidazol-1-yl)-piperidin-1-yl]-N-(4-styryl-phenyl)-acetamide], the melting point lay within 234 to 235 °C. Besides, in series [1], the IC50 is over 5 µM. Further, the IC50 in series [2] was found to be 0.79 µM. The IC50 in series [3] is over 5 µM. In addition, in series [4], the IC50 was over 5 µM.

For `O=C(CN1CCC(n2c(=O)[nH]c3ccccc32)CC1)Nc1ccc2c(c1)-c1ccccc1C2=O` [Compound 266, 2-[4-(2-Oxo-2,3-dihydro-benzoimidazol-1-yl)-piperidin-1-yl]-N-(9-oxo-9H-fluoren-3-yl)-acetamide], the melting point was 176 °C. In series [1], the IC50 is over 5 µM. Further, the IC50 in series [2] stood at 0.0005 µM. For the same molecule, the IC50 in series [3] is over 5 µM. Further, the half-inhibitory concentration (IC50) in series [4] was over 5 µM. The IC50 in series [5] worked out at 0.0004 µM.

Regarding `O=C(CN1CCC(n2c(=O)[nH]c3ccccc32)CC1)Nc1cccc(C(=O)c2ccccc2)c1` [Compound 268, N-(3-Benzoyl-phenyl)-2-[4-(2-oxo-2,3-dihydro-benzoimidazol-1-yl)-piperidin-1-yl]-acetamide], the melting point is 134 to 135 °C. In addition, in series [1], the IC50 was over 5 µM. In addition, the IC50 in series [2] worked out at 0.13 µM. For the same molecule, the IC50 in series [3] is over 5 µM. Besides, the IC50 in series [4] is over 5 µM. Further, in series [5], the concentration for half-maximal inhibition (IC50) worked out at 0.12 µM.

In turn, `O=C(CN1CCC2(CC1)C(=O)NCN2c1ccccc1)Nc1ccc(C2CCCCC2)cc1` [Compound 269, N-(4-Cyclohexyl-phenyl)-2-(4-oxo-1-phenyl-1,3,8-triaza-spiro[4.5]dec-8-yl)-acetamide] displayed a melting point of 117 to 118 °C. Further, the IC50 in series [1] was over 5 µM. For the same molecule, the IC50 in series [2] came to 0.79 µM. For the same molecule, the IC50 in series [3] is over 5 µM. In series [4], the IC50 was over 5 µM.

`CN(C(=O)CN1CCC(n2c(=O)[nH]c3ccccc32)CC1)c1ccc(C2CCCCC2)cc1` [Compound 270, N-(4-Cyclohexyl-phenyl)-N-methyl-2-[4-(2-oxo-2,3-dihydro-benzoimidazol-1-yl)-piperidin-1-yl]-acetamide]: the melting point lay within 250 to 253 °C. Further, the IC50 in series [1] is over 5 µM. Besides, the IC50 in series [2] was over 10 µM. In addition, the IC50 in series [3] was over 5 µM. Further, the IC50 in series [4] is over 5 µM. The IC50 in series [5] was over 10 µM.

Turning to `O=C(CN1CCCCC1)Nc1ccc(-c2ccccc2)cc1` [Compound 271, N-Biphenyl-4-yl-2-piperidin-1-yl-acetamide], the melting point was in the range of 102 to 103 °C. The IC50 in series [1] is over 5 µM. Also, the IC50 in series [2] is 5.4 µM. The IC50 in series [3] was over 5 µM. Also, the IC50 in series [4] is over 5 µM. In series [5], the IC50 came out at 2.9 µM.

As for `O=C(CN1CCN(c2ccccc2)CC1)Nc1ccc(C2CCCCC2)cc1` [Compound 272, N-(4-Cyclohexyl-phenyl)-2-(4-phenyl-piperazin-1-yl)-acetamide], the melting point was in the range of 195 to 196 °C. Besides, the IC50 in series [1] is over 5 µM. Further, the IC50 in series [2] was 0.117 µM. Further, the half-inhibitory concentration (IC50) in series [3] was over 5 µM. In addition, the IC50 in series [4] is over 5 µM. In series [5], the IC50 is 0.21 µM.

For `O=C(CNC(c1ccccc1)c1ccccc1)Nc1ccc(C2CCCCC2)cc1` [Compound 273, 2-(Benzhydryl-amino)-N-(4-cyclohexyl-phenyl)-acetamide], the melting point fell in the range of 132 to 133 °C. Further, the IC50 in series [2] was 7 µM. In addition, in series [3], the IC50 was over 5 µM. Besides, the IC50 in series [4] was over 5 µM. Moreover, the IC50 in series [5] turned out to be 6.5 µM.

Take `O=C(CN1CCC(NC(=O)Nc2ccccc2)CC1)Nc1ccc(C2CCCCC2)cc1` [Compound 274, N-(4-Cyclohexyl-phenyl)-2-[4-(3-phenyl-ureido)-piperidin-1-yl]-acetamide]: the melting point was 222 to 223 °C. In addition, the IC50 in series [2] was 4.8 µM. Also, the half-maximal inhibitory concentration (IC50) in series [3] is over 5 µM. For the same molecule, in series [4], the IC50 is over 5 µM. Besides, the IC50 in series [5] was found to be 1.5 µM.

Consider `Cl.O=C(CN1CCC(C(=O)c2ccc(F)cc2)CC1)Nc1ccc(C2CCCCC2)cc1` [Compound 292, N-(4-Cyclohexyl-phenyl)-2-[4-(4-fluoro-benzoyl)-piperidin-1-yl]-acetamide; hydrochloride], for which the melting point is 258 °C. The IC50 in series [1] was over 5 µM. Also, the IC50 in series [2] was found to be 0.11 µM. Further, in series [4], the IC50 was over 5 µM. Also, the IC50 in series [5] was found to be 0.084 µM.
